Data on 1 molecule can be found in ChEMBL document CHEMBL6092154, “Design, synthesis, and evaluation of a novel TRAIL-activated HDAC6 inhibitor for the treatment of pulmonary fibrosis” (Bioorg Med Chem, 2024).

In data set [1] the test system is RPMI-8226. The experiment in a line: Increase in DR5 protein expression in human RPMI-8226 cells incubated for 24 hrs by western blot analysis. The conditions noted are these: dose 0.25-1 µM. Format: functional, cell-based.
For data set [2], the system named is Mus musculus. Put plainly: Anti-pulmonary fibrosis activity in bleomycin-induced idiopathic pulmonary fibrosis C57BL/6J mouse model assessed as decrease in lung damage by measuring decrease in inflammatory cell infiltration in lung at 25 to 50 mg/kg, ig administered daily via gavage and measured on day 14 by Sirius red staining based analysis. Format: functional, organism-based. The conditions noted are these: dose 25-50 mg/kg, time 14.0 day.

In data set [3] the target is Histone deacetylase 2 (Homo sapiens, UniProt Q92769). The experiment in a line: Inhibition of HDAC2 (unknown origin) at 1 uM incubated for 30 mins by fluorometric analysis.
Data set [4] in a line: Toxicity against silicosis C57BL/6J mouse model assessed as effect on spleen morphological changes at 50 mg/kg, ig administered daily via gavage and measured on day 28 by Hematoxylin-Eosin staining based analysis. Format: organism-based. The conditions noted are these: in vivo, po, 672 h, time 28 day.
Data set [5] has as its system Fibroblast. The experiment in a line: Antiproliferative activity against human primary fibroblasts assessed as inhibition of cell growth incubated for 24 to 48 hrs by CCK8 assay. Format: functional, cell-based.
Data set [6] in a line: Toxicity against bleomycin-induced pulmonary fibrosis C57BL/6J mouse model assessed as effect on liver morphological changes at 25 to 50 mg/kg, ig administered daily via gavage and measured on day 14 by Hematoxylin-Eosin staining based analysis. Format: organism-based. The conditions noted are these: in vivo, po, 336 h, dose 25-50 mg/kg, time 14 day.
The target of data set [7] is T1, Protein deacetylase HDAC6 (Homo sapiens) (UniProt Q9UBN7).
T1 sequence (whole entry): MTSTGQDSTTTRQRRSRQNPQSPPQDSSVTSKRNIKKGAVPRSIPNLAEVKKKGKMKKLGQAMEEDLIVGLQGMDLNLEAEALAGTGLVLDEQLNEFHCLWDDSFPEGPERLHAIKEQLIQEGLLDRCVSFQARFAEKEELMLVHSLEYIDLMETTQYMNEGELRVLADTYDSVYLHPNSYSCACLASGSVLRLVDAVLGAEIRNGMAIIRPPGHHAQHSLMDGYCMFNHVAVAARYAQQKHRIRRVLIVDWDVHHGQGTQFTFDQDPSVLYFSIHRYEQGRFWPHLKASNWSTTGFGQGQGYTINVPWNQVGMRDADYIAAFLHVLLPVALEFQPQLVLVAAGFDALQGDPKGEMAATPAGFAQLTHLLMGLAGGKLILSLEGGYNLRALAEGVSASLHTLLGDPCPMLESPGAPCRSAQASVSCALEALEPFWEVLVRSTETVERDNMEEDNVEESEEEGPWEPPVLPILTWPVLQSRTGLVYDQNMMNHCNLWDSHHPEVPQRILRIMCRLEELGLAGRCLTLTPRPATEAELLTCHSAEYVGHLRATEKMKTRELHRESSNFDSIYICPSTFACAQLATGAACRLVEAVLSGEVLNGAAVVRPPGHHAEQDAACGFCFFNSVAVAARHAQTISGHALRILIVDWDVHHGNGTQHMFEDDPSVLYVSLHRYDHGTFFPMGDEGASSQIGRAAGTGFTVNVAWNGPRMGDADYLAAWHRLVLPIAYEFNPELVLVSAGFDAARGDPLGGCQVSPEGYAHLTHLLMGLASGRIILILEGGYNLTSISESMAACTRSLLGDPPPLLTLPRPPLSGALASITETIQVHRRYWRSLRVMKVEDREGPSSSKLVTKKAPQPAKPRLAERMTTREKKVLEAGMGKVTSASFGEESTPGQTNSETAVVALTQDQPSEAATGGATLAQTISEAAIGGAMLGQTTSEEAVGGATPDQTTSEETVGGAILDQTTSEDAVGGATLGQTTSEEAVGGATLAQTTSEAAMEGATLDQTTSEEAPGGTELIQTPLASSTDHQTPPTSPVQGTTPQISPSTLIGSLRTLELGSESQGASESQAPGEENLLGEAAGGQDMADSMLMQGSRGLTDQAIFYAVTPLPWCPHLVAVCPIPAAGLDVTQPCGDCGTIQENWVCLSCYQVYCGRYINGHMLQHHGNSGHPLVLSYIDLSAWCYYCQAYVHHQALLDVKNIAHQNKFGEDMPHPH
The experiment in a line: Inhibition of HDAC6 (unknown origin) at 1 uM incubated for 30 mins by fluorometric analysis.

Data set [8] deals with Histone deacetylase 3 (Homo sapiens, UniProt O15379). The experiment in a line: Inhibition of HDAC3 (unknown origin) incubated for 30 mins by fluorometric analysis.
The test system of data set [9] is Mus musculus. The experiment in a line: Anti-pulmonary fibrosis activity in bleomycin-induced idiopathic pulmonary fibrosis C57BL/6J mouse model assessed as decrease in lung damage by measuring decrease in collagen deposition in lungs at 25 to 50 mg/kg, ig administered daily via gavage and measured on day 14 by Masson's trichrome staining based analysis. Format: functional, organism-based. The conditions noted are these: dose 25-50 mg/kg, time 14.0 day.

Data set [10] addresses T2, Histone deacetylase 8 (Homo sapiens, UniProt Q9BY41).
T2 sequence (Q9BY41 whole entry): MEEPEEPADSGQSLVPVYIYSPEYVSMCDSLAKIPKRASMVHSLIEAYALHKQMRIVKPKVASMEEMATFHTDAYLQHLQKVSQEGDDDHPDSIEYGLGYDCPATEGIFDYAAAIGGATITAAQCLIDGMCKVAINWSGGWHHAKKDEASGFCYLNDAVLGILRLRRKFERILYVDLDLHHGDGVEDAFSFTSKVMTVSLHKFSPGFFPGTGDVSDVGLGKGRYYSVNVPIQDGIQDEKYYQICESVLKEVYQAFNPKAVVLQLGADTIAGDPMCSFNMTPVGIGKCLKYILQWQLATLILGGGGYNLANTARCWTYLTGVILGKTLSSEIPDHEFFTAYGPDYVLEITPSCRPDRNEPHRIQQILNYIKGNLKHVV
The experiment in a line: Inhibition of HDAC8 (unknown origin) incubated for 30 mins by fluorometric analysis.

The nature of data set [11]: Toxicity against bleomycin-induced pulmonary fibrosis C57BL/6J mouse model assessed as effect on spleen morphological changes at 25 to 50 mg/kg, ig administered daily via gavage and measured on day 14 by Hematoxylin-Eosin staining based analysis. Format: organism-based. To be noted: in vivo, po, 336 h, dose 25-50 mg/kg, time 14 day.
For data set [12], the target named is T3, Histone deacetylase 8 (Homo sapiens) (UniProt Q9BY41).
T3 sequence (whole entry): T2 sequence (Q9BY41 whole entry)
The experiment in a line: Inhibition of HDAC8 (unknown origin) at 1 uM incubated for 30 mins by fluorometric analysis.

The source made the active and inactive calls. The calls are words filed in the database; no cut-off is given here.

Histone deacetylase 2, sequence (Q92769 whole entry): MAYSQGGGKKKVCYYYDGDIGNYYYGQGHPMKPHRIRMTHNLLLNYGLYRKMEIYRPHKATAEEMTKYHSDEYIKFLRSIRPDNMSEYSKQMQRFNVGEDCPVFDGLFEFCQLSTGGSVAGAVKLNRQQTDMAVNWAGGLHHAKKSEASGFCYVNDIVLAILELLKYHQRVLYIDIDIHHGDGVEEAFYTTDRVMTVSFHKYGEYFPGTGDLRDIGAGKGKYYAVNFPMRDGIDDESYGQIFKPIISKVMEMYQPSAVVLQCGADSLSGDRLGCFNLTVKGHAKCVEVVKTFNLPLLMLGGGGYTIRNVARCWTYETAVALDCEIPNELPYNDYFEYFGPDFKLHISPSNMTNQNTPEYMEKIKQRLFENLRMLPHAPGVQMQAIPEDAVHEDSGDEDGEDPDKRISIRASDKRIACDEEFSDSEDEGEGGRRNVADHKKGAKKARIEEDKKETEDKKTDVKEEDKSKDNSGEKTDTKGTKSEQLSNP
Histone deacetylase 3, sequence (O15379 whole entry): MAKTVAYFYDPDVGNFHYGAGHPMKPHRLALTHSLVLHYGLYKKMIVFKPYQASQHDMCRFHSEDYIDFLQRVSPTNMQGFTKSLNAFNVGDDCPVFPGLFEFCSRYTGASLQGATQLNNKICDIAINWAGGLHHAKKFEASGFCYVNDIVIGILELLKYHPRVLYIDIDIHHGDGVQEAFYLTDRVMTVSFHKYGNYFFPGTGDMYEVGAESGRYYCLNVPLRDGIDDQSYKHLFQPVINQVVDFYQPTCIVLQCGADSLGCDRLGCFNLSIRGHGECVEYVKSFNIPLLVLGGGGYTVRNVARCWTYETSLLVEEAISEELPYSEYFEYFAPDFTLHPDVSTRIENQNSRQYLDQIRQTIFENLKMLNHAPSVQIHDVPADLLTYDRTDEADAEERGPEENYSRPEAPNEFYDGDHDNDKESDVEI

As to `O=C(NO)c1ccc(CN2C(=O)C3=C(CCN(Cc4cccc(Cl)c4)C3)N3CCN=C23)cc1`, the Activity entry in data set [1] is reported as “Dose-dependent-effect; Higher Activity Compared To Positive Drug, 1 Um Compound Iic, Chidamide, Acy-1215”; in data set [4] it was “Non-toxic”; in data set [6], “Non-toxic”; in data set [11], “Non-toxic”. In addition, the result in data set [2] and in data set [9] was Active. The inhibition was determined as 61.8% in data set [3], 94.8% in data set [7] and 76.2% in data set [12]. Also, the IC50 in [5] came to 29.4 µM; in [8] it was 1.14 µM; in data set [10], 0.333 µM.

Broadly, the inhibition is the share of the control response that was lost under treatment. As a reminder, the IC50 is the point on the concentration scale where inhibition reaches its midpoint.
